Laboratory results taken from ChEMBL document CHEMBL1127762, “Five-membered heterocyclic amines as potential anti-rheumatoid arthritis agents” (Bioorg Med Chem Lett, 1994).

Experiments:
[1] = Partition coefficient (logP); settings: octanol/water
[2] = test system: Rattus norvegicus; assay: Percent reduction in paw volume ([…], days 9-18) by 33 mg/kg p.o. in rats.; assay type: functional; settings: route oral
[3] = test system: Rattus norvegicus; assay: Improvement in joint mobility at 33 mg/kg p.o. in rat model of arthritis.; assay type: functional; settings: route oral
[4] = test system: Rattus norvegicus; assay: Percent reduction in paw volume (right primary lesion, days 0-8) by 33 mg/kg p.o. in rats.; assay type: functional; settings: route oral
[5] = test system: Rattus norvegicus; assay: Percent reduction in paw volume (right primary lesion, days 9-18) by 33 mg/kg p.o. in rats.; assay type: functional; settings: route oral
[6] = test system: Rattus norvegicus; assay: Antiarthritic activity by measuring percent reduction in paw volume in Sprague Dawley rat by peroral administration of 33 mg/kg; assay type: functional; settings: route oral
[7] = test system: Rattus norvegicus; assay: Antiarthritic activity by measuring % reduction in paw volume in Sprague Dawley rat, peroral administration of 10 mg/kg, volume change in the uninjected paw([…]) measured from day 9 to day 18; assay type: functional; settings: route oral

logP [1] | Compound | Reduction [2] [%] | Reduction [3] [%] | Reduction [4] | Reduction [5] [%] | Reduction [6] [%] | Reduction [7] [%]
0.66 | Nc1ncns1 | 106 | 69 | 45% | 59 | – | –
0.52 | Nc1nc(-c2cnccn2)ns1 | 24 | 6 | 10% | 17 | – | –
– | Nc1n[nH]c(-c2ccccn2)n1 | 60 | 21 | 3% | 32 | – | –
– | CC(=O)Nc1nc(-c2cc(C(C)(C)C)c(O)c(C(C)(C)C)c2)no1 | 79 | 75 | 80% | 66 | – | –
2.83 | Nc1nc(-c2ccc(Cl)cc2)ns1 | 46 | 18 | 20% | 50 | – | –
0.08 | Nc1nc(-c2ncccn2)ns1 | 5 | 30 | 28% | 31 | – | –
1.05 | Nc1nc(-c2ccccn2)ns1 | 65 | 70 | 8% | 44 | – | –
2.05 | Nc1nc(Cc2ccccc2)ns1 | 77 | 36 | 28% | 42 | – | –
1.58 | Nc1nc(-c2cccnc2)ns1 | 49 | 24 | 15% | 22 | – | –
3.72 | CC(C)(C)c1cc(-c2noc(N)n2)cc(C(C)(C)C)c1O | 103 | 89 | 47% | 56 | – | –
– | O=C(Nc1nc(-c2ccccc2)ns1)OCC(Cl)(Cl)Cl | 68 | 42 | 50% | 45 | – | –
– | Nc1nc(-c2ccccn2)no1 | 66 | 8 | 24% | 22 | – | –
1.78 | CC(C)(C)c1nsc(N)n1 | 45 | 28 | 16% | 30 | – | –
1.72 | Nc1nc(-c2ccncc2)ns1 | 74 | 33 | 11% | 20 | – | –
1.77 | Nc1nc(-c2cccs2)ns1 | 43 | 7 | 6% | 25 | – | –
1.12 | CCCc1nsc(N)n1 | 54 | 47 | 13% | 40 | – | –
– | Nc1nc(-c2ccccc2)ns1 | 84 | 13 | 22% | 51 | – | –
1.78 | CC(C)(C)c1ccc(-c2nsc(N)n2)cc1 | 6 | 18 | 27% | – | 2 | –
0 | Cc1nsc(N)n1 | 66 | 84 | 38% | 50 | – | –
– | Nc1nc[nH]n1 [AMITROLE] | 57 | 26 | 27 | 46 | – | –
– | C/C=C/C[C@@H](C)[C@@H](O)[C@H]1C(=O)N[C@@H](CC)C(=O)N(C)CC(=O)N(C)[C@@H](CC(C)C)C(=O)N[C@@H](C(C)C)C(=O)N(C)[C@@H](CC(C)C)C(=O)N[C@@H](C)C(=O)N[C@H](C)C(=O)N(C)[C@@H](CC(C)C)C(=O)N(C)[C@@H](CC(C)C)C(=O)N(C)[C@@H](C(C)C)C(=O)N1C [CYCLOSPORINE] | – | – | 51% | – | – | 77
